Like-named read-outs stand apart in the source and are kept apart here.
Experiments:
[1] = system: human total EbB2/Her2; assay: HER2 degradation assay (ELISA) in BT474 cells; format: cell-based; details: BT-474, 16 hrs, read-out: Her2 Degradation IC50 Abs IC50
Experimental: BT474 (breast cancer) cells were plated at 12,000 cells per well and incubated for 20-24 hrs at 37° C. at 5% CO2. Post cell incubation, compounds were reconstituted in DMSO to a stock concentration of 5 mM. A compound plate was then prepared containing a 10 point dilution in DMSO. 2 uL of these dilutions were then added to the cells for a final working concentration of 5 uM to 0.0003 uM. Compounds and cells were incubated for 16 hrs. Media was then removed, cells washed, lysed, and analyzed for human total EbB2/Her2 levels by ELISA.

[2] = biological target: T1, HSP90α (Homo sapiens, UniProt P07900); assay: HSP90 binding, HSP90α Assay Kit (fluorescence polarization, labeled geldanamycin competition)
T1 construct: purchased
Experimental: The bindings of the conjugates to HSP90 were studied with the HSP90α Assay Kit. The HSP90α Assay Kit is designed for identification of HSP90α inhibitors using fluorescence polarization. The assay is based on the competition of fluorescently labeled geldanamycin for binding to purified recombinant HSP90α. The key to the HSP90α Assay Kit is the fluorescently labeled geldanamycin. The fluorescently labeled geldanamycin is incubated with a sample containing HSP90α enzyme to produce a change in fluorescent polarization that can then be measured using a fluorescence reader.

[3] = system: NCI-H460 cells; assay: NCI-H460 tumor cell cytotoxicity assay (CellTiter-Glo); format: cell-based; details: Homo sapiens, NCI-H460, 48 h
Experimental: NCI-H460 cells (non-small cell lung cancer) were plated at 500 cells per well and incubated for 20-24 hrs at 37° C. at 5% CO2. Post cell incubation, compounds were reconstituted in DMSO to a stock concentration of 200 uM. A compound plate was then prepared containing a 10 point dilution in RPMI+10% FBS+0.25% DMSO. 5 uL of the dilution was then added for a final working concentration range of 10 uM to 0.0005 uM. Compounds and cells were then incubated for 48 hrs. Cells were then analyzed by CellTiter-Glo for ATP levels and percent inhibition calculated.

[4] = system: PARP; assay: PARP inhibiting activity (FIG. 8A); format: biochemical; details: in words
Description: (§1) The activity of the respective payload is blocked until the linker moiety gets cleaved in the tumor and releases active unblocked payload. Through the HSP90 platform, toxicity is mitigated by masking the payload's active site until it can be delivered to the tumor.
(§2) FIG. 8A compares the activity of Conjugate 45 and its payload (talazoparib). FIG. 8B compares the activity of Conjugate 46 and its payload (ulixertinib). FIG. 8C compares the activity of Conjugate 47 and its payload TAK-733. The data further support that attaching a payload to a HSP90 binding ligand blocks the target activity of the payload. The HSP90 bindings of the HSP90 ligands are not affected.

[5] = system: ERK1/2; assay: ERK1/2 inhibiting activity (FIG. 8B); format: biochemical; details: in words
Description: as §1, §2

[6] = biological target: T2, topoisomerase-I (Homo sapiens, UniProt P11387); assay: DNA damage / topoisomerase activity (FIG. 9); format: biochemical; details: FIG. 9, in words
T2 sequence (P11387 1-765): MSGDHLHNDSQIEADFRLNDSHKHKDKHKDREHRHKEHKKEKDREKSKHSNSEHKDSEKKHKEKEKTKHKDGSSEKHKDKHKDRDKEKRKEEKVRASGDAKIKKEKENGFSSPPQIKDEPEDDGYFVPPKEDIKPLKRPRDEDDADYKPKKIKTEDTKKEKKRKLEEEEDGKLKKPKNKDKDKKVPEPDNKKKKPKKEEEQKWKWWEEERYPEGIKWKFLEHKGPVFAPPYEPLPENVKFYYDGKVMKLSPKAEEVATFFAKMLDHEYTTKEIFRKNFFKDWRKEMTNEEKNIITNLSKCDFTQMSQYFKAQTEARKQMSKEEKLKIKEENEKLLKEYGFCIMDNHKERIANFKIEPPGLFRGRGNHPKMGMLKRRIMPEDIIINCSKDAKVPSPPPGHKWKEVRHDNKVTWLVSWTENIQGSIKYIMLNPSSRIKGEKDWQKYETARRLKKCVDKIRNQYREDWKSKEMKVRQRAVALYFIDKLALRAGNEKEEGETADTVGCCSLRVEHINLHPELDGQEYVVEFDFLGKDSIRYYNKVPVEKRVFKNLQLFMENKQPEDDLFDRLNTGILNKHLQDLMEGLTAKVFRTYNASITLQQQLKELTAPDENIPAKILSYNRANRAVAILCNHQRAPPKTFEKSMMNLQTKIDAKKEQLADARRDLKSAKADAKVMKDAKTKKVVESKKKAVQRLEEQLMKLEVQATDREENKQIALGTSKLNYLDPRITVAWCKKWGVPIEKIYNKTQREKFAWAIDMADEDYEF
Description: In one further study, DNA damage caused by Conjugate 48 (a conjugate comprising a ganetespib derivative and SN-38) was compared with the DNA damage caused by SN-38, the payload of Conjugate 48. SN-38 and its pre-drug, irinotecan (an analog of camptothecin), are inhibitors of topoisomerase-I and potently cause DNA damage that results in nicks in the DNA. […] The conjugation of SN-38 to the HSP90 ligand results in the masking of the activity of SN-38 until it can be selectively delivered to tumors where linker cleavage occurs.

[7] = Glucose levels post dosing in mice; format: in vivo; details: FIG. 7, in words
Description: In an in vivo study in mice, glucose levels were monitored post PI3K inhibitor (Copanlisib) and Conjugate 38 dosing. […] Therefore, conjugating a PI3K enzyme inhibitor payload to a HSP90 targeting ligand reduced the normal tissue activity of glucose increase in mice.

[8] = system: LS174t colon tumor xenograft; assay: LS174t colon tumor xenograft model, efficacy; format: in vivo, mice; details: FIG. 3A, in words
[9] = format: in vivo, mice; details: LS174t xenograft, in words
Experimental: Accumulation and retention of Conjugate 38 was tested in this tumor xenograft model.

[10] = n = 1, read-out: H460 in vitro cytotoxicity
[11] = n = 2, read-out: H460 in vitro cytotoxicity

Compound: CCNC(=O)c1nnc(-c2cc(C(C)C)c(O)cc2O)n1-c1ccc(C(=O)N2CCN(c3ccc(OC(=O)N4CCN(CCCOc5ccc6c(c5OC)N=C(NC(=O)c5cnc(N)nc5)N5CCN=C65)CC4)cc3)CC2)cc1 [Compound 29]
- IC50 [1]: 59 nM
- Kd ([2]; read-out: HSP90 Binding Kd): 1.03 nM

Compound: CCNC(=O)c1nnc(-c2cc(C(C)C)c(O)cc2O)n1-c1ccc(CN2CCN(C(=O)c3ccc(OC(=O)N4CCN(CCCOc5ccc6c(c5OC)N=C(NC(=O)c5cnc(N)nc5)N5CCN=C65)CC4)cc3)CC2)cc1 [Compound 30]
- IC50 [1]: 38 nM
- Kd ([2]; read-out: HSP90 Binding Kd): 0.68 nM

Compound: CCNC(=O)c1nnc(-c2cc(C(C)C)c(O)cc2O)n1-c1ccc(CN2CCC(C(=O)N3CCN(c4ccc(OC(=O)N5CCN(CCCOc6ccc7c(c6OC)N=C(NC(=O)c6cnc(N)nc6)N6CCN=C76)CC5)cc4)CC3)CC2)cc1 [Compound 31]
- IC50 [1]: 103 nM
- Kd ([2]; read-out: HSP90 Binding Kd): 1.38 nM

Compound: CCNC(=O)c1nnc(-c2cc(C(C)C)c(O)cc2O)n1-c1ccc(C(=O)N2CCN(Cc3ccc(OC(=O)N4CCN(CCCOc5ccc6c(c5OC)N=C(NC(=O)c5cnc(N)nc5)N5CCN=C65)CC4)cc3)CC2)cc1 [Compound 32]
- IC50 [1]: 49 nM
- Kd ([2]; read-out: HSP90 Binding Kd): 0.86 nM

Compound: CCNC(=O)c1nnc(-c2cc(C(C)C)c(O)cc2O)n1-c1ccc(C(=O)N2CCN(Cc3ccc(OC(=O)N4CCN(CCCOc5ccc6c(c5OC)N=C(NC(=O)c5cnc(N)nc5)N5CCN=C65)CC4)c(C)c3)CC2)cc1 [Compound 33]
- IC50 [1]: 41 nM
- Kd ([2]; read-out: HSP90 Binding Kd): 1.03 nM

Compound: CCNC(=O)c1nnc(-c2cc(C(C)C)c(O)cc2O)n1-c1ccc(C(=O)NCc2cc(C)c(OC(=O)N3CCN(CCCOc4ccc5c(c4OC)N=C(NC(=O)c4cnc(N)nc4)N4CCN=C54)CC3)c(C)c2)cc1 [Compound 34]
- IC50 [1]: 141 nM
- Kd ([2]; read-out: HSP90 Binding Kd): 1.37 nM

Compound: CCNC(=O)c1nnc(-c2cc(C(C)C)c(O)cc2O)n1-c1ccc(CN2CCN(C(=O)N3CCN(CCCOc4ccc5c(c4OC)N=C(NC(=O)c4cnc(N)nc4)N4CCN=C54)CC3)CC2)cc1 [Compound 36]
- IC50 [1]: 72 nM

Compound: CCNC(=O)c1nnc(-c2cc(C(C)C)c(O)cc2O)n1-c1ccc(CN2CCN(C(=O)Oc3ccc(OC(=O)N4CCN(CCCOc5ccc6c(c5OC)N=C(NC(=O)c5cnc(N)nc5)N5CCN=C65)CC4)cc3)CC2)cc1 [Compound 37]
- IC50 [1]: 119 nM

Compound: COc1c(OCCCN2CCN(C(=O)Oc3ccc(CC(=O)N4CCN(Cc5ccc(-n6c(O)nnc6-c6cc(C(C)C)c(O)cc6O)cc5)CC4)cc3)CC2)ccc2c1N=C(NC(=O)c1cnc(N)nc1)N1CCN=C21 [Compound 39]
- IC50 [1]: > 20000 nM
- Kd ([2]; read-out: HSP90 Binding Kd): 1.8 nM

Compound: COc1c(OCCCN2CCN(C(=O)Oc3ccc(CC(=O)N4CCC(CCn5ccc6cc(-n7c(O)nnc7-c7cc(C(C)C)c(O)cc7O)ccc65)CC4)cc3)CC2)ccc2c1N=C(NC(=O)c1cnc(N)nc1)N1CCN=C21 [Compound 40]
- IC50 [3, 10]: 247 nM
- IC50 [3, 11]: 56 nM

Compound: CCNC(=O)c1nnc(-c2cc(C(C)C)c(O)cc2O)n1-c1ccc(C(=O)NCCc2ccc(OC(=O)N(CCCOc3ccc4c(c3OC)N=C(NC(=O)c3cnc(N)nc3)N3CCN=C43)C(C)C)cc2)cc1 [Compound 42]
- IC50 [3, 10]: 135 nM
- IC50 [3, 11]: 147 nM

Compound: CCNC(=O)c1nnc(-c2cc(C(C)C)c(O)cc2O)n1-c1ccc(CN2CCN(C(=O)Cc3ccc(CC(=O)N(C)CCCOc4ccc5c(c4OC)N=C(NC(=O)c4cnc(N)nc4)N4CCN=C54)cc3)CC2)cc1 [Compound 43]
- IC50 [3, 10]: 42 nM
- IC50 [3, 11]: 31 nM

Compound: CCNC(=O)c1nnc(-c2cc(C(C)C)c(O)cc2O)n1-c1ccc(C(=O)NCCc2ccc(OC(=O)N(C)CCCOc3ccc4c(c3OC)N=C(NC(=O)c3cnc(N)nc3)N3CCN=C43)cc2)cc1 [Compound 44]
- IC50 [3, 10]: 527 nM
- IC50 [3, 11]: 325 nM

Compound: CC(C)c1cc(-c2nnc(O)n2-c2ccc(CN3CCN(CCC(C)(C)SS[C@H](C)COC(=O)N(CCN(C)C)Cn4nc5c6c(cc(F)cc6c4=O)N[C@H](c4ccc(F)cc4)[C@H]5c4ncnn4C)CC3)cc2)c(O)cc1O [Compound 45]
- Kd ([2]; read-out: HSP90 KD): 0.33 nM

Compound: CCNC(=O)c1nnc(-c2cc(C(C)C)c(O)cc2O)n1-c1ccc(CN2CCC(C(=O)N3CCC(C(=O)OC[C@@H](NC(=O)c4cc(-c5cc(NC(C)C)ncc5Cl)c[nH]4)c4cccc(Cl)c4)CC3)CC2)c(F)c1 [Compound 46]
- Kd ([2]; read-out: HSP90 KD): 1 nM

Compound: CCNC(=O)c1nnc(-c2cc(C(C)C)c(O)cc2O)n1-c1ccc(N(C)C2CCN(C(=O)CCC(=O)OC[C@H](O)Cn3cnc4c(c(Nc5ccc(I)cc5F)c(F)c(=O)n4C)c3=O)CC2)cc1 [Compound 47]
- Kd ([2]; read-out: HSP90 KD): 1.2 nM

Compound: CC(C)c1cc(-c2nnc(O)n2-c2ccc(CN3CCN(CCC(C)(C)SS[C@H](C)COC(=O)N(CCN(C)C)Cn4nc5c6c(cc(F)cc6c4=O)N[C@H](c4ccc(F)cc4)[C@H]5c4ncnn4C)CC3)cc2)c(O)cc1O [Conjugate 45]
- PARP inhibiting activity compared with payload (talazoparib) [4]: lower than its payload

Compound: CCNC(=O)c1nnc(-c2cc(C(C)C)c(O)cc2O)n1-c1ccc(CN2CCC(C(=O)N3CCC(C(=O)OC[C@@H](NC(=O)c4cc(-c5cc(NC(C)C)ncc5Cl)c[nH]4)c4cccc(Cl)c4)CC3)CC2)c(F)c1 [Conjugate 46]
- ERK1/2 inhibiting activity compared with payload (ulixertinib) [5]: lower than its payload

Compound: CCc1c2c(nc3ccc(OC(=O)N4CCC(CCn5ccc6cc(-n7c(O)nnc7-c7cc(C(C)C)c(O)cc7O)ccc65)CC4)cc13)-c1cc3c(c(=O)n1C2)COC(=O)[C@]3(O)CC [Conjugate 48]
- DNA damage [6]: negligible levels of DNA damage up to 100 uM

Compound: COc1c(OCCCN2CCOCC2)ccc2c1N=C(NC(=O)c1cnc(N)nc1)N1CCN=C21 [Copanlisib, reference compound]
- glucose concentration after dosing [7]: increase in glucose levels
- efficacy (tumor growth inhibition) in LS174t xenograft [8]: lack of efficacy
- tumor retention time [9]: much shorter tumor retention time

Compound: CCc1c2c(nc3ccc(O)cc13)-c1cc3c(c(=O)n1C2)COC(=O)[C@]3(O)CC [SN-38]
- DNA damage [6]: DNA damage even at 1 uM

Compound: CC(C)c1cc(-c2nnc(O)n2-c2ccc3c(ccn3C)c2)c(O)cc1O [ganetespib, reference compound]
- DNA damage [6]: none
- efficacy (tumor growth inhibition) in LS174t xenograft [8]: lack of efficacy

Compound: CCc1c2c(nc3ccc(OC(=O)N4CCC(N5CCCCC5)CC4)cc13)-c1cc3c(c(=O)n1C2)COC(=O)[C@]3(O)CC [irinotecan]
- DNA damage [6]: moderate level of DNA damaging activity

From US20210000966A1, “HSP90-TARGETING CONJUGATES AND FORMULATIONS THEREOF” (TARVEDA THERAPEUTICS, INC., priority 2017, published 2021)
